In patent publication US20260315431A1, “NANOMATERIAL ENCAPSULATED BIOFILM INHIBITORS FOR DENTAL CARIES TREATMENT” (THE UAB RESEARCH FOUNDATION, priority 2023, published 2026):
Converted amounts (≈) assume the structure as drawn. Read-outs that look alike come from different tables or passages of the source.

What was measured:
[1] = test system: S. mutans UA159; experiment: Biofilm inhibition, S. mutans UA159 (crystal violet, OD562); assay type: cell-based, Streptococcus mutans; details: for IC50 / inhibition at 50 µM: Streptococcus mutans; for inhibition at 50 µM: UA159, 50 μM; for S. mutans biofilm inhibition: 50 μM
Method: (§1) The bacterial strains, S. mutans UA159, S. gordonii DL1, and S. sanguinis SK36 were inoculated statically at 37° C. under 5% CO2 in Todd Hewitt Broth (THB) for 24 h. The cultures were then diluted with fresh THB (1:5) and reinoculated until optical density at 470 nm (OD470) reached 1. The optical density was read using BioTek 800TS microplate reader at 470 nm for bacterial growth and 562 nm for biofilm stained with crystal violet. Data was plotted in Graphpad Prism9.
Biofilm inhibition assays. Biofilm inhibition assays were performed in polystyrene microtiter 96 well plates. Stock solutions were prepared in chemically defined medium (CDM, JRH Biosciences, Lenexa, KS) with 2% sucrose, 1% bacteria cultures and various concentrations of the small molecule inhibitors to examine their activity against biofilm formation as described^69, 70. These stocks were assayed in 96 well plates in triplicate and incubated at 37° C. and 5% CO2 for 16 h. After reading optical density for bacterial growth, the plate was gently washed with water, dried, and stained with crystal violet, and then gently rinsed again with deionized water leaving the stained biofilm at the bottoms of the wells. Biofilms was dissolved in 200 μL of 30% acetic acid and absorbance at 562 nm was used read to determine biofilm biomass. Each assay was carried out at least in triplicate. Biofilm inhibitory concentration (IC50) of the compounds was determined by serial dilutions.
(§2) All bacterial strains (S. mutans UA159, S. gordonii DL1, and S. sanguinis SK36) were inoculated statically at 37° C. under 5% CO2 environment in Todd Hewitt Broth (THB) for 24 h^[61]. The cultures were then diluted with fresh THB (1:5) and reinoculated until the optical density at 470 nm reaches 1. The optical density was read using BioTek 800 TS absorbance reader at 470 nm for bacterial growth and 562 nm for biofilm stained with crystal violet. Data was plotted in Prism 10.0.2.
Biofilm inhibition assays were performed in polystyrene microtiter 96-well plates. Stock solutions were prepared in chemically defined medium (CDM) with 1% sucrose, 1% bacteria cultures and various concentrations of the small molecule inhibitors to examine their activity against biofilm formation as described^[62, 63]. These stocks were assayed in 96 well plates in triplicate and incubated at 37° C. and 5% CO2 for 16 h. After reading optical density for bacterial growth, the plate was washed, dried, and stained with 0.1% crystal violet which was again rinsed well with deionized water leaving the stained biofilm at the bottoms of the wells. This biofilm was dissolved in 200 μL of 30% acetic acid and absorbance at 562 nm was read to determine amount of biofilm formation. Each assay was carried out at least in triplicate. Biofilm inhibitor concentration (IC50) of the compounds was determined by serial dilutions from 0 μM-50 μM (1% DMSO).

[2] = Solubility in water containing 1% DMSO (UV spectroscopy); assay type: physicochemical; details: for solubility compared with IIIC5: comparison with IIIC5 (25 μg/mL); for solubility: organic solvent or mixture, water containing 1% DMSO
Method: Solubility of MA1-6 and HA2-6 were determined as reported^46 (Table 1).
General considerations. ^1H-NMR and ^13C-NMR spectra were recorded on Bruker Avance Neo 400 and Avance II 700 spectrometers using TMS or appropriate solvent signals as internal standard. The chemical shift values are given in parts per million (ppm) relative to the internal standard used and the coupling constants (J) are given in hertz (Hz). High resolution mass spectra (HRMS) were recorded using Waters AutoSpec-Ultima™ NT magnetic sector mass spectrometer with Electron Impact (EI) Ionization source. The mass analyzer is an electric-magnetic-electric (EBE) sector (a double focusing sector). Anhydrous solvents used for reactions were purchased in Sure-Seal™ bottles from Aldrich chemical company. Other chemical reagents were purchased from Aldrich or Fisher chemical companies and used as received. Reactions were monitored with thin layer chromatography (TLC), which was done on silica gel plates with fluorescent indicator (Silicycle, silica gel, UV254, 25 μm plates). The TLC spots were observed under UV light with the wavelengths 254 nm and 365 nm. The reaction mixtures were purified by column chromatography using Si gel (32-63 μm) from Dynamic Absorbent, Inc. Melting points were determined on a Mel-Temp II melting point apparatus and are uncorrected. All tested compounds have ≥95% purity as determined by HPLC. HPLC traces were obtained using Shimadzu SPD-M20A. Solubility of compounds were determined by UV-spectroscopy method using Agilent Cary 60 UV-Vis spectrophotometer. HPLC analysis of the final compounds were conducted using Kinetex 5 μm C18 100 Å, LC Column 150×4.6 mm, compound=3 mM, 20 μL injection, solvent: mobile phase buffer, Conditions: 60% MeCN/40% H2O/0.1% Formic acid (isocratic), HPLC method 0-10 min, Signals were analyzed using a 254 nm UV detector. A chromatogram of Mobile Phase Buffer (20 μL) was obtained for comparison.

[3] = test system: S. mutans UA159; experiment: Planktonic growth, S. mutans UA159 (OD470); assay type: cell-based, Streptococcus mutans; details: for inhibition at 50 µM: Streptococcus mutans, UA159, read-out: planktonic growth inhibition of S. mutans, 50 μM
Method: as §1
(§3) S. mutans, S. gordonii, and S. sanguinis growth assays. Effects of compounds on S. mutans and commensal bacterial growth were evaluated using the growth assay as described^69. S. mutans UA159, S. gordonii DL1, S. sanguinis SK36, cultures were grown for 24 h under 5% CO2 at 37° C. These cultures were then reinoculated with fresh THB (1:5) until OD470=1 when the bacteria were ready to be used. Different concentrations of the inhibitor were assayed in chemically defined media (CDM) with 1% of the bacteria, 1% sucrose and 1% DMSO in 96 well plates. The 96 well plates were incubated under 5% CO2 at 37° C. for 16 h. Growth of the bacteria was read after 16 h at OD470. Each assay was carried out at least in triplicate.
as §2
as §3, with “Effects” for “S. mutans, S. gordonii, and S. sanguinis growth assays. Effects”, “PEHA5, PEHA6, HA5 or HA6” for “compounds”, “described^[62].” for “described^69.”, “PEHA5, PEHA6, HA5 or HA6” for “inhibitor”, “CDM” for “chemically defined media (CDM)”

[4] = water, 1% dmso; cited from earlier work
[5] = S. mutans UA159 biofilm, read-out: Biofilm IC50

Structure (SMILES) | IC50 ([1]; UA159, read-out: Biofilm IC50) | solubility [2] | inhibition at 50 µM [3] | also measured
COc1cc(OC)c(OC)cc1C=CC(=O)c1ccccc1O [Compound 3e, 1-(2-Hydroxyphenyl)-3-(2′,4′,5′-trimethoxyphenyl) prop-2-en-1-one] | > 300 µM |  |  | 
COc1ccc(/C=C2\Oc3ccccc3C2=O)cc1 [MA2, 2-[(4′-Methoxyphenyl)methylidene]-2,3-dihydro-1-benzofuran-3-one] | 108 µM | 16.2 µg/mL (≈ 64.3 µM) |  | solubility compared with IIIC5 [2]: lower solubility than IIIC5; IC50 ([1]; UA159, read-out: Biofilm IC50 (unit inferred)): 108 µM
COc1cc(OC)c(OC)cc1/C=C1\Oc2ccccc2C1=O [MA5, 2-[(2′,4′,5′-Trimethoxyphenyl)methylidene]-2,3-dihydro-1-benzofuran-3-one] | 52.8 µM | 42.4 µg/mL (≈ 136 µM) | 30% | inhibition at 50 µM [1]: 60%; IC50 [1, 5]: 52.8 µM
O=C(O)c1ccccc1O [Salicylic acid] |  |  |  | solubility [4]: 1880 ± 30 µg/mL (≈ 13600 µM)
O=C1/C(=C/c2ccc(O)cc2)Oc2ccccc21 [HA2, 2-[(4′-Hydroxyphenyl)methylidene]-2,3-dihydro-1-benzofuran-3-one] | 18.8 ± 2.36 µM | 18.9 µg/mL (≈ 79.5 µM) | 60% | solubility compared with IIIC5 [2]: lower solubility than IIIC5; inhibition at 50 µM [1]: > 95%; planktonic growth inhibition of S. mutans ([3]; 50 μM): 70%
COc1cc(/C=C2\Oc3ccccc3C2=O)cc(OC)c1OC [MA6, 2-[(3′,4′,5′-Trimethoxyphenyl)methylidene]-2,3-dihydro-1-benzofuran-3-one] | > 300 µM | 44.7 µg/mL (≈ 143 µM) |  | 
COc1cc(C=CC(=O)c2ccccc2O)cc(OC)c1OC [Compound 3f, 1-(2-Hydroxyphenyl)-3-(3′,4′,5′-trimethoxyphenyl) prop-2-en-1-one] | 181 µM |  |  | inhibition at 50 µM [1]: 40%; planktonic growth of S. mutans ([3]; 50 μM): no growth inhibition
O=C1C(=Cc2ccccc2)Oc2ccccc21 [MA1, 2-(Phenylmethylidene)-2,3-dihydro-1-benzofuran-3-one] | 33.6 ± 0.53 µM |  | 80% | solubility compared with IIIC5 [2]: lower solubility than IIIC5; solubility ([2]; UV spectroscopy): 8.51 ± 2 µg/mL (≈ 38.3 µM)
O=C1/C(=C/c2cc(O)cc(O)c2)Oc2ccccc21 [HA4, 2-[(3′,5′-Dihydroxyphenyl)methylidene]-2,3-dihydro-1-benzofuran-3-one] | 94.2 µM |  | 30% | solubility ([2]; UV spectroscopy): 76.5 µg/mL (≈ 301 µM); S. mutans biofilm inhibition [1]: did not show significant biofilm inhibition; IC50 [1, 5]: 94.2 µM
COc1cc(C=CC(=O)c2ccccc2O)cc(OC)c1 [Compound 3d, 3-(3′,5′-Dimethoxyphenyl)-1-(2-hydroxyphenyl) prop-2-en-1-one] | > 300 µM |  |  | 
COc1cc(/C=C2\Oc3ccccc3C2=O)cc(OC)c1 [MA4, 2-[(3′,5′-Dimethoxyphenyl)methylidene]-2,3-dihydro-1-benzofuran-3-one] | > 300 µM | 19 µg/mL (≈ 67.2 µM) |  | solubility compared with IIIC5 [2]: lower solubility than IIIC5
O=C(C=Cc1ccccc1)c1ccccc1O [Compound 3a, 1-(2-Hydroxyphenyl)-3-phenyl-2-propen-1-one] | > 300 µM |  |  | 
COc1ccc(C=CC(=O)c2ccccc2O)cc1OC [Compound 3c, 3-(3′,4′-Dimethoxyphenyl)-1-(2-hydroxyphenyl) prop-2-en-1-one] | > 300 µM |  |  | 
COc1ccc(/C=C2\Oc3ccccc3C2=O)cc1OC [MA3, 2-[(3′,4′-Dimethoxyphenyl)methylidene]-2,3-dihydro-1-benzofuran-3-one] | 49.4 µM | 36.3 µg/mL (≈ 128 µM) |  | S. mutans biofilm inhibition [1]: inactive; IC50 [1, 5]: 49.4 µM
O=C1/C(=C/c2ccc(O)c(O)c2)Oc2ccccc21 [HA3, 2-[(3′,4′-Dihydroxyphenyl)methylidene]-2,3-dihydro-1-benzofuran-3-one] | 30.7 µM |  | 40% | solubility ([2]; UV spectroscopy): 81.6 µg/mL (≈ 321 µM); inhibition at 50 µM [1]: ~80%; IC50 [1, 5]: 30.7 µM
COc1ccc(C=CC(=O)c2ccccc2O)cc1 [Compound 3b, 1-(2-Hydroxyphenyl)-3-(4′-methoxyphenyl)-2-propen-1-one] | > 300 µM |  |  | 
